# In US20240156959A1, “COMBINATION THERAPY FOR THE TREATMENT OF CANCER COMPRISING AN ANTl-EGFR ANTIBODY AND AN AXL-INHIBITOR” (Yeda Research and Development Co. Ltd., priority 2021, published 2024):
# Key:
# [1] = system: AXL-overexpressing tumors; assay: Whole exome sequencing, untreated vs TKI-treated relapsing tumors; format: in vivo, mice
# Description: (§1) Whole exome sequencing: Genomic DNA was isolated using PureLink™ Genomic DNA Mini Kit (Cat# K182002). The qualtiy of the DNA was checked by agarose gel ecltrophoresis and Qubit dsDNA HS Assay kit (Thermo Fisher Scientific). Exome sequencing libraries were prepared according to the manufacturer's instructions (Twist Human core exome kit+RefSeq Panel). Input gDNA (50 ng) from each sample was processed for enzymatic fragmentation, subsequent end repair, and dA-tailing to generate dA-tailed DNA fragments. Twist Universal Adapters were ligated to the dA-tailed DNA fragments, and purified to generate gDNA libraries ready for index introduction through amplification. A gDNA library adapted with Twist CDI primers was amplified and purified. The quality of the amplified library was confirmed using capillary electrophoresis (Bioanalyzer, Agilent). Prior to hybridization, the volume of each library was adjusted using the respective concentration of each Amplified Indexed Library. Ten libraries were multiplexed by 150 ng to give a total mass of 1500 ng. The pre-hybridization solution containing library, probes, RefSeq Panel and blockers was dried using a SpeedVac system and low heat. 0.020 ml of the fast hybridization mix was added to the dried pre-hybridization solution, and then 0.030 ml hybridization enhancer was added on top of the pre-hybridization solution. The mixture was incubated for 5 min at 95° C. and later heated for 2 hours at 60° C. in a thermal cycler (Fast Hybridization). Streptavidin Binding Beads (100 μl) were washed three times with 0.2 ml Fast Binding Buffer and re-suspended in 0.2 ml binding buffer. The hybridization mixture was added to the bead suspension and incubated for 30 min at RT with mixing. The beads were washed once, preheated in Fast Wash Buffer 1 for 5 min at 70° C., and three times with 0.2 ml of Wash Buffer2 for 5min at 48° C. DNA was eluted with 0.045 ml nuclease-free water (Streptavidin Binding Bead slurry). The captured library was amplified using PCR to enrich for fragments. The quality of the amplified libraries was verified by means of automated electrophoresis (Tapestation, Agilent). […]
# (§2) Alignment and variant calling: Sequence QC was done through FastqQC 0.11.5 (Andrews 2015). Reads were mapped to human reference genome sequence (hg19; NCBI GRCh37) using bwa 0.7.12 (H. Li and Durbin 2009). […]
# (§3) Animal experiments: All animal studies were approved by our institutional board and they were performed in accordance with the guidelines of the Institutional Animal Care and Use Committee (IACUC). […] Tumor volume was estimated using vernier caliper measurements of the longest axis, a/mm, and the perpendicular axis, b/mm Volumes were calculated in accordance with the equation V=(4 π/3)×(a/2)^2×(b/2). […]
# PC9 tumors = assay: as above; format: in vivo, mice
# Description: as §1, §2, §3
# AXL = assay: Re-analysis of AXL mRNA levels in a published patient dataset; format: in vivo; details: 23 patients, specimens prior to and after treatment, p<0.05
# Description: FIGS. 1A-G: Upregulation of AXL is essential for resistance and tolerance. (A) PC9 cells (2×10^6) were subcutaneously implanted in nude mice. […] Tumor volumes are presented (average ±SEM). (B) 3-4 mice from each group presented in A were euthanized when tumors reached 1,500 mm 3 Tumors were extracted and subjected to immunoblotting. Tubulin (TUB) served as the loading control. (C and D) AXL-overexpressing (C) and AXL-knockout PC9 cells (2×10^6, D), along with naïve cells, were subcutaneously implanted in mice. When tumors became palpable, mice were randomized and treated as in A. (E) Data were re-analyzed for AXL mRNA levels in 23 patients with EGFR+NSCLC. Specimens (total=53) were collected at several time points, prior to and after treatment with osimertinib. (F and G) AXL-overexpressing (OX; F) or AXL-knockout PC9 cells (KO; G), along with naïve cells, were untreated or treated with TKIs (1 or 3 μM). Drugs and media were refreshed on day 3 and 6. On day 9, remaining cells (DTPs) were fixed, stained and quantified. Averages±S.D. (triplicates) are shown.
# RAD18 = RAD18 immunoprecipitation and immunoblotting in DTPs; format: cell-based; details: erlotinib 1 μM, 2-9 days
# Description: FIGS. 3A-G. AXL and RAD18 are functionally linked. (B) PC9 cells were treated with erlotinib (1 μM), or DMSO and RNA was subjected to real time PCR. (C) Transcriptomic data corresponding to 506 patients with lung adenocarcinoma were used to generate an expression correlogram of 19 DNA damage response genes. Pearson correlation coefficients are indicated in each square (see scale code). (D) Parental and RAD18 knockout cells were treated for 9 days with a TKI. Fractions of surviving DTPs are shown. (E) Naïve and RAD18-knockout cells were probed using anti-AXL or anti-RAD18 antibodies. Thereafter, the cells were processed for proximity ligation analysis (red signals). Representative images and PLA quantification are shown. Bar, 20 μm. (F) Cells were treated for 2-9 days with erlotinib (1 μM) or H2O2 (40 μM). Extracts were subjected to immunoprecipitation with an anti-RAD18 or control antibody and immunoprecipitates were immunoblotted. (G) Naïve and AXL-overexpressing cells, along with PC9ER cells, were treated with erlotinib (1 μM). Genomic DNA was isolated after 9 days and the T790M point mutation was determined using digital PCR. Shown are fraction of T790M in cellular DNA. Data are means ±SEM (4 experiments). […]
smiles,measurement,setting,value
C=CC(=O)Nc1cc(Nc2nccc(-c3cn(C)c4ccccc34)n2)c(OC)cc1N(C)CCN(C)C [osimertinib],increase in base alterations in relapsing tumors,[1],2.52 fold
same,increase in base alterations in relapsing tumors,PC9 tumors,2.37 fold
same,AXL mRNA levels in EGFR tumors of patients,AXL,AXL up-regulation
C#Cc1cccc(Nc2ncnc3cc(OCCOC)c(OCCOC)cc23)c1 [erlotinib],increase in base alterations in relapsing tumors,[1],2.42 fold
same,increase in base alterations in relapsing tumors,PC9 tumors,2.31 fold
same,ubiquitination of PCNA,RAD18,increased ubiquitination of PCNA
same,ubiquitination of RAD18,RAD18,reduced ubiquitination of RAD18
